Entries after “also recorded” stand apart in the source; their conditions may differ.
Columns and labels:
[1] = test system: HIV envelope gp120/41-induced syncytia formation in CD4+T cell lines (HIVenv 2-8 co-culture); assay: Inhibition of HIVenv 2-8-induced syncytia formation / cell death (HIV-1 co-culture assay); type: cell-based; conditions: for Estimated IC50 (Syncitia Quantification), inhibition of HIV-induced cytopathicity: Table 1
Method: Sourcing of Ah Receptor Ligands: The Ah receptor ligands 2,3,7,8-Tetrachlorodibenzo-p-dioxin, 3,3',4,4',5-Pentachlorobiphenyl, 3,3',4,'4-Tetrachlorobiphenyl, and 2-Monochlorodibenzo-p-dioxin compounds were purchased from Accustandard (Cambridge, Mass.). α-naphthoflavone was purchased from Sigma (St. Louis, Mo.). Stock solutions of each compound were prepared by dissolution in DMSO at a 1000X concentration, i.e. the highest concentration tested was diluted by 1000-fold.
Bioassay Procedure: The cell lines utilized in the assay protocol include the following: HIVenv 2-2 (non-cytopathic), HIVenv 2-8 (cytopathic), Jurkat CD4+T cell line (clone E6-1), and SupT1. Cell lines were cultured in RPMI medium (Gibco, Grand Island, N.Y.) supplemented with L-glutamine (Sigma, St. Louis, Mo.) and 10% FBS-HI (Intergen). The Jurkat CD4+T cell line was obtained from American Type Culture Collection (Bethesda, Md.). All other cell lines were obtained from the National Institutes of Health. The HIVenv 2-2 or HIVenv 2-8 cells were plated with both CD4+T cell lines (1×10^3 cells per cell line in 16 μL of media.) in a 96-well tissue culture plate containing 50 μL of media with compound to be tested yielding a final volume of approximately 100 μL. The plates were then gently shaken to ensure adequate mixing of the assay components. Cells were then co-cultured at 5% CO2, 37C., and 95% humidity for 24 to 48 hours. The time points were chosen for the convenience, cytopathic changes become evident in the cell cultures used within a 2 to 4 hour period, becoming more and more prominent with time.
Data Reduction for this ELISA: HIVenv 2-2 co-culture ELISA values are used as the background for HIVenv 2-8 co-culture values. Dose responses are then plotted with dose along the x-axis and the background corrected optical density values on the y-axis.
Positive and Negative Controls: The use of the HIVenv 2-2 cell line serves as a negative control for induction of cytopathicity.
(§1) Interpretation of the Test: A positive response was defined as a dose-related decrease in syncytia formation in excess of 50% compared to HIVenv 2-8 co-cultures alone. Calculation of median effective doses was estimated by visual observation and by quantification of syncitia in 10X power microscope fields.
The Materials and Methods used in the testing of the various dibenzofuran compounds were the same as those used in Example 1 above. This includes the use of the same controls, cell lines, and assay procedures.
as §1, with “fields. Another procedure which provides data similar to the Bioassay procedure just described allows for quantification of changes in the co-culture cells through an ELISA method, not as reliant on visual observation. […]” for “fields.”

CDK1 = assay: Inhibition of CDK1 hyperphosphorylation, western blot densitometry; type: cell-based; conditions: TCDD, 10 nM; mean ± standard error, n=5 or 6; 2-8 co-culture 44.27, 2-2 co-culture 10.41
Method: (§2) The expression of the protein kinase c-Mos was induced in addition to alterations in cell cycle (CDK1, cyclin B) and apoptotic (Bcl-2 and Bax) protein concentrations and phosphorylation status. CDK1 became hyperphosphorylated whereas cyclin B, Bcl-2, and Bax expression were elevated. Assay for these biochemical changes was performed by western blot analysis using equal amounts of cell lysate proteins derived from cells cultured with the respective Ah receptor ligands. Responses were quantified by scanning densitometry.
(§3) Data from Table 2 represents the mean ± standard error of scanning densitometric units (n=5 or 6 individual scans from separate experiments).Doses used were as follows: TCDD, 10 nM; Substituted Furans (6-nitro 1,3,8-trichlorodibenzofuran; 6-isopropyl, 1,3,8-trichlorodibenzofuran; 6-methyl, 1,3,8-trichlorodibenzofuran; 1-bromo, 6-methyl, 3,8-dichlorodibenzofuran), 2 μM. All four alkyl substituted furan compounds that were tested yielded approximately equivalent responses so their responses were combined.

Cyclin B [2] = assay: Inhibition of cyclin B overexpression, western blot densitometry; type: cell-based; conditions: TCDD, 10 nM; mean ± standard error, n=5 or 6; 2-8 co-culture 61.88, 2-2 co-culture 10.14
Method: as §2, §3

Cyclin B [3] = assay: Inhibition of cyclin B overexpression (cyclin B ELISA; FIGS. 2 and 3); type: cell-based; conditions: FIG. 2 / FIG. 3
Method: Cyclin B ELISA procedure: The overexpression Cyclin B has become associated with HIVenv 2-8 cytopathicity. This biochemical response and it's inhibition by Ah receptor ligands has been assayed by ELISA. Following 24 hours of co-culture in 96 well microtiter tissue culture plates, the cells are washed 1X with PBS buffer and then lysed with 50 μL lysis buffer (50 mM Tris, […], 10% glycerol, 1% NP-40) with shaking at 4° C. for 30 minutes. Thirty microliters of the cell lysate were then transferred into Immulon 4™ ELISA strip plates and 70 μL of coating buffer (0.2M Borate pH 10.5) added to bring the final microtiter well volume to 100 μL The plates were then incubated at 37° C. for 1 hour to allow for coating. The plates are then washed 3X with 300 μl TBST (20 mM Tris, 150 mM NaCl, 0.05% Tween 20, pH 7.5), incubated with 125 μL of blocking solution for 5 minutes, washed 3X, incubated with horseradish peroxidase labeled anti-mouse IgG for 1 hour at room temperature, washed 3X, and then incubated with 100 μL TMB substrate for 30 minutes at room temperature. Stop solution (2.5M sulfuric acid, 100 μL) was then added to prevent further color development and the plate was read at an optical density of 450 nm.
Data Reduction for this ELISA: HIVenv 2-2 co-culture ELISA values are used as the background for HIVenv 2-8 co-culture values. […]

Ah receptor [4] = molecular target: T1, Ah receptor (Cavia porcellus, UniProt Q6J287); assay: Ah receptor transformation, agonist test (Ah-immunoassay, absence of TCDD); type: biochemical, Guinea pig
T1 sequence (Q6J287 1-846): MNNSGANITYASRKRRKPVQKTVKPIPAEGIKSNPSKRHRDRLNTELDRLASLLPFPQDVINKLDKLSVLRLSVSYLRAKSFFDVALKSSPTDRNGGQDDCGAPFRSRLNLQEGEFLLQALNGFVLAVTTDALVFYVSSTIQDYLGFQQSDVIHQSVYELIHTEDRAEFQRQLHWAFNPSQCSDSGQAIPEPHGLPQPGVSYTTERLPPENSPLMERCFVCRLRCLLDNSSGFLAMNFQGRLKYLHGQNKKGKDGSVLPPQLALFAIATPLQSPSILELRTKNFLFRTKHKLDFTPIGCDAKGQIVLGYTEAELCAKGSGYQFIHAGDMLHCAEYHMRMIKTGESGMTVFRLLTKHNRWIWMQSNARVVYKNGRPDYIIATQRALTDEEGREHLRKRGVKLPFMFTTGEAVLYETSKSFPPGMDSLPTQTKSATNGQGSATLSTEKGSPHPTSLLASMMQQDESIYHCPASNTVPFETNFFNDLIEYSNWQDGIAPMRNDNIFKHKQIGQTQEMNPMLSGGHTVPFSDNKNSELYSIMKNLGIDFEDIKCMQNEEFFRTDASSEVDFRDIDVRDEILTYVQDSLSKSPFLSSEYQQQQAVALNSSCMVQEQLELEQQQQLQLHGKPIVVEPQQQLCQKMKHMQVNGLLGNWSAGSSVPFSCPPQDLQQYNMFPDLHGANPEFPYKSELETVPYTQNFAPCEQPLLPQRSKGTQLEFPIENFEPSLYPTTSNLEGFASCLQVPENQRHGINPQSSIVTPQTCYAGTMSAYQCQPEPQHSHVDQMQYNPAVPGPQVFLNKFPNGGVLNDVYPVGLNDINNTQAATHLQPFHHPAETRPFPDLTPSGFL
Method: Cytosol was prepared as described above.
Diluent for TCDD dose response, diluent for extracts (detection of agonists), and negative control: The cytosol is treated with 1 μL DMSO per 1 mL cytosol (-).
1 nM TCDD treated, positive control. […] DMSO diluent for detection of agonists: the cytosol is treated with μL DMSO per 1 mL cytosol. (1 nm final concentration of TCDD).

[5] = test system: transformed, cancerous cells; conditions: cited from earlier work
Ah receptor [6] = molecular target: T1, Ah receptor; assay: Inhibition of Ah receptor transformation, antagonist test (Ah-immunoassay, 0.5 nM TCDD)
Method: Cytosol was prepared as described in methods and treated with TCDD, DMSO or TCM extract to make 1) 0.5 nM TCDD, 2) 0.1% DMSO, or 3) 500 μg/mL TCM extract, respectively. The treated cytosol was serially diluted in a neutravidin-coated ELISA plate (Pierce, Rockford, Ill.). […] To treat for Ah receptor agonist activity, extracts were diluted in 0.5 nM TCDD treated cytosol to 250, 125, and 62.5 μg/mL of TCM extracts.
Ten mL aliquots of cytosol were thawed and pooled, generally 20 mL per ELISA plate. For each 20 mL of cytosol, 10 μL of thawed DRE stock and 1 mL HEDG in 4M NaCl were added.
0.5 nM TCDD Diluent for extracts (detection of antagonists): The cytosol is treated with 1 μl of 1 μM TCDD per 2 mL cytosol (0.5 nm).
500 μg/mL extracts (detection of antagonists): 1 μL of test extract (500 mg/mL in DMSO) in 1 mL 0.5 nM TCDD-treated cytosol (500 μg/mL final concentration of extract in cytosol).
Serial dilution's of the extracts and/or TCDD treated cytosol into DMSO-treated cytosol are done as required by the experiment and are described in the examples.
The ELISA plate containing the treated cytosol is incubated with gentle rocking for 2 hours at 30° C. to allow the transformation of Ah receptor, binding of Ah receptor with ARNT, and binding of the Ah receptor/ARNT complex to the biotinylated DRE, and binding of the biotinylated DRE to the neutravidin bound to the ELISA plate.
After 2 hours the plate is washed 3 times with 400 μL TBS plus 0.02% Tween 20 per well per wash and 200 μL of the working dilution of anti-ARNT added to all wells. The plate is again incubated with gentle rocking at 30° C. for 1 hour. After 1 hour the plate is washed as before and a working dilution (1:4000) of anti-rabbit/alkaline phosphatase conjugate is added to all wells. The plate is incubated for a further 1 hour at 30° C. with gentle rocking and then washed as before. PNPP stock is added to each well (200 μL) and the plate is incubated for 1 hour at 30° C., at which time it is read at 405 nm in an ELISA plate reader and the milli O.D.'s of the wells are recorded.
TCM extracts were tested for their ability to inhibit the transformation of the Ah receptor.

[7] = high dosages over a prolonged period; cited from earlier work
Ah receptor [8] = conditions: literature; cited from earlier work

In the case of Clc1cc2c(cc1Cl)Oc1cc(Cl)c(Cl)cc1O2 [2,3,7,8-TCDD, 2,3,7,8-Tetrachlorodibenzo-p-dioxin], the “inhibition of syncytia formation / cytopathicity” value [1] is reported as “most effective compound and strongest Ah receptor agonist”, the “Estimated IC50 (Syncitia Quantification), inhibition of HIV-induced cytopathicity” value [1] is reported as 0.002 µM and the “CDK1 Phosphorylation” value (CDK1) is reported as 11.13 ± 3.3 scanning densitometric units. For the same compound, the “Cyclin B (inhibition of cyclin B overexpression)” value (Cyclin B [2]) was 9.32 ± 2.7 scanning densitometric units, the “inhibition of cyclin B overexpression (figure legend)” value (Cyclin B [3]) was “inhibition of cyclin B overexpression” and the EC50 (Ah receptor [4]) was 0.0005 µM. For the same compound, the “Milli O.D. of TCDD control” value (Ah receptor [4]; Table 12 footnote, .5 nM TCDD, BG subtracted, read at 450 nm) was 850 Milli O.D.
In the case of COC1C=CC=C(C)C(=O)NC2=CC(=O)C=C(C2=O)C(OC)C(C)CC(OC)C(OC)C(C)C=C(C)C1OC(N)=O (centres unmarked) [Herbimycin A, herbimycin A], the “inhibition of syncytia formation / cytopathicity” value [1] is reported as “block the HIVenv 2-8 induced cytopathic effect”, the “Estimated IC50 (Syncitia Quantification), inhibition of HIV-induced cytopathicity” value [1] is reported as 0.75 µM and the “Estimated IC50 (Syncitia Quantification), inhibition of HIV-induced cytopathicity, second value in brackets” value ([1]; Table 1, positive control) is reported as “.43 µM”. The “inhibition of cyclin B overexpression (figure legend)” value (Cyclin B [3]) was “inhibition of cyclin B overexpression”.
For O=c1c(O)c(-c2ccc(O)c(O)c2)oc2cc(O)cc(O)c12 [Quercetin], the “anti-proliferative effect” value [5] is given as “anti-proliferative effect on those transformed, cancerous cells”, the IC50 (Ah receptor [6]) is given as about 9.93 µM and the “inhibition of Ah receptor transformation / antagonist activity (words)” value (Ah receptor [6]; 0.5 nM TCDD) is given as “does present antagonistic activity towards the Ah receptor”. For the same compound, the “inhibition of Ah receptor transformation / antagonist activity (words)” value (Ah receptor [6]; 0.5 nM TCDD, listed as quercetin) was “antagonistic activity towards the Ah receptor at all doses tried”, the “Quercetin interaction with the Ah receptor, Milli O.D. Reading” value (“Quercetin interaction” for short) (Ah receptor [6]; Table 12, 2.5 μg/mL) was 480 Milli O.D and the “Quercetin interaction” value (Ah receptor [6]; Table 12, 5 μg/mL) was 320 Milli O.D. For the same compound, the “Quercetin interaction” value (Ah receptor [6]; Table 12, 10 μg/mL) was 260 Milli O.D, the “Quercetin interaction” value (Ah receptor [6]; Table 12, 20 μg/mL) was 210 Milli O.D and the “genotoxicity / carcinogenic activity” value [7] was “genotoxic compound, that may initiate carcinogenic activity in certain tissues”.
With O=c1cc(-c2ccccc2)oc2c1ccc1ccccc12 [α-naphthoflavone] the “inhibition of syncytia formation / cytopathicity” value [1] was “correspondingly weaker activity; also recorded: also effective at inhibiting syncytia formation”, the “Estimated IC50 (Syncitia Quantification), inhibition of HIV-induced cytopathicity” value [1] was 0.35 µM and the “IC50, inhibition of Ah receptor transformation (estimated)” value (Ah receptor [6]; 0.5 nM TCDD) was 18.6 µM. The “inhibition of Ah receptor transformation / antagonist activity (words)” value (Ah receptor [6]; 0.5 nM TCDD) was “more potent antagonist of the Ah receptor”, the “ability to transform the Ah receptor / agonist activity” value (Ah receptor [4]; absence of TCDD) was “very weak agonist of the Ah receptor; also recorded: did not reach the EC50 of TCDD” and the “known Ah receptor agonism/antagonism” value (Ah receptor [8]) was “known partial agonist and antagonist of the Ah receptor; also recorded: described to act as an Ah receptor antagonist by inhibiting TCDD-induced Ah receptor transformation to a DNA binding form”.
